Laboratory results reported in US8183230B2, “Antimicrobial preservatives to achieve multi-dose formulation using beta-cyclodextrins for liquid dosage forms” (priority 2004, dated 2012).
“Also recorded” adds a separate entry of the source.

Legend:
[1] = test system: Escherichia coli, Pseudomonas aeruginosa, Staphylococcus aureus, Candida albicans, Aspergillus niger; assay: Hybrid USP/Ph. Eur. antimicrobial effectiveness test (AET); type: cell-based
Description: Preparation of Preserved Formulations. […] Antimicrobial preservatives with optimal activity at a pH outside the nominal formulation value (pH 4.4) were titrated to either 3.5 or 5.0 using 1 N HCl or 1 N NaOH. A stock solution of either 10% or 5% (weight/volume) SBE-CD containing 10 mgA/mL of the compound of Formula Ia citrate was prepared. Preservative was added to the respective formulation on a weight basis.
Antimicrobial Efficacy Testing. A hybrid USP […]/Ph. Eur. 2000 antimicrobial effectiveness test (AET) was performed, as follows: 20 mL of drug product was individually inoculated with 0.1-0.2 mL of bacterial or fungal culture, per USP/Ph. Eur. compendial requirements. The final concentration of organisms in the test sample was between 1×10^5 and 1×10^6 cfu/mL. At initial 6 hr, 24 hr, 7 day, 14 day, and 28 day time intervals, 1 mL of the inoculated product was transferred into 9 mL of a recovery diluent, that was validated to confirm neutralization of the antimicrobial preservative. One mL of the diluted sample was then transferred to a sterile petri dish and combined with 15-20 mL of an agar broth to culture the organisms. Plates were then incubated for 3 to 5 days, upon which colonies were counted. Initial organism contamination was then calculated based on dilution of the initial sample.
Generally, the USP test requirements are less stringent than Ph. Eur. requirements, which typically have an immediate bacteriocidal activity requirement. The Ph. Eur. requirements shown in Table III have either a “Criteria A” or “Criteria B” specification depending on the rate of microorganism reduction, with criteria A requiring an increased bacteriocidal rate. In order to meet the combined hybrid assay, the initial inoculum count of microorganisms needed to be reduced by the amounts listed in Table V.

[2] = Study A; pH: 4.4, SBE-CD: 10%; compound of Formula Ia at 10 mgA/mL; content: ethanol 15%, meta-cresol 0.3%, propylene glycol 50%, thimerosal 0.01
Description: Injection site toleration was measured by inspecting the patient for signs of reaction, including erythema (size); skin thickening (size), pain on palpation and edema. Table VI provides a detailed explanation of the scoring system: a score of 0 (no reaction) to 4 (severe reaction) was given for each characteristic and each injection site daily.
Compound of Formula Ia formulations were evaluated for injection site toleration (hereinafter “IST”).
Formulations were tested in groups of 4 dogs comprised of beagles and mongrels. […] Dogs were observed daily for evidence of reaction at the injection site and a score of 0-4 (see Table VI) was given for each of the following parameters: pain on injection, erythema, tissue thickening, pain on palpation and edema. Dogs were observed daily until day 5 (24 hours after the last dose).

For `Cc1cccc(O)c1` [meta-cresol], which reducing the microorganisms [1] is on record?
Its reducing the microorganisms is “effective”.

And the “AET Results Ph. Eur. Criteria A” value ([1]; Study A, pH: 4.4, SBE-CD: 10%, compound of Formula Ia at 10 mgA/mL, content: ethanol 15%, meta-cresol 0.3%, propylene glycol 50%, thimerosal 0.01, cells without ✓ print organism (time point))?
The value was “s. aur (6, 24 hr); also recorded: c. alb (7 d)”.

And the “Ph. Eur. criteria B” value ([1]; leads of Study B)?
The value was “met criteria B”.

And the “Ph. Eur. criteria A for preservative efficacy” value ([1]; meta-cresol containing formulations)?
Its value is “robustly meeting Ph. Eur. criteria A”.

What about the activity against bacteria ([1]; when SBE-CD was present in the formulation) of the same molecule?
The activity against bacteria was “greatly diminished”.

And the IST [2]?
The IST was “Good”.
